Test results published in PubChem BioAssay (NCI).
Values joined by “and” are separate entries in the source; they are usually repeats but may differ in a detail not shown here. Identical values can stand only once.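 Method: 48-hour compound exposure of cells in 96-well plates, five concentrations, linear interpolation of endpoints. GI50: concentration for 50% inhibition of growth. Definition used: TGI = concentration required for complete inhibition of growth.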

Experiments:
Assay in all cases: NCI-60 cell line screen, 48 h
KM12 colon = system: KM12 colon
HCT-116 colon = system: HCT-116 colon
SR leukemia = system: SR leukemia
UO-31 renal = system: UO-31 renal
RPMI-8226 leukemia = system: RPMI-8226 leukemia
K-562 leukemia = system: K-562 leukemia
SNB-19 CNS = system: SNB-19 CNS
OVCAR-3 ovarian = system: OVCAR-3 ovarian
OVCAR-5 ovarian = system: OVCAR-5 ovarian
NCI-H522 lung = system: NCI-H522 lung

SMILES	TGI (KM12 colon)	TGI (HCT-116 colon)	TGI (SR leukemia)	TGI (UO-31 renal)	TGI (RPMI-8226 leukemia) [µM]	TGI (K-562 leukemia)	TGI (SNB-19 CNS)	GI50 (KM12 colon) [nM]	GI50 (HCT-116 colon) [nM]	GI50 (SR leukemia) [nM]	GI50 (UO-31 renal) [nM]	GI50 (OVCAR-3 ovarian) [nM]	TGI (OVCAR-3 ovarian)	GI50 (OVCAR-5 ovarian) [µM]	TGI (OVCAR-5 ovarian)	GI50 (K-562 leukemia) [nM]	GI50 (SNB-19 CNS) [µM]	GI50 (NCI-H522 lung) [nM]	TGI (NCI-H522 lung)	GI50 (RPMI-8226 leukemia) [nM]
C[Si](C)(C)C(CCCCSc1ccccc1)(Sc1ccccc1)Sc1ccccc1	> 100 µM	> 100 µM	> 100 µM	> 100 µM	> 100	> 100 µM	> 100 µM	–	–	–	–	–	–	–	–	–	–	–	–	–
CCC(C)Oc1nc2c(c(=O)n(C)c(=O)n2C)n1C (stereo unspecified)	> 100 µM	> 100 µM	> 100 µM	> 100 µM	–	> 100 µM	> 100 µM	> 100000	> 100000	> 100000	> 100000	> 100000	> 100 µM	> 100	> 100 µM	> 100000	> 100	–	–	–
O=S1(=O)N(Cc2ccccc2)[C@@H](Cc2ccccc2)[C@H](O)[C@H](O)[C@H](Cc2ccccc2)N1Cc1ccccc1	5.84 µM	5.05 µM	–	5.96 µM	> 20	9.38 µM	> 20 µM	2940	2430	–	2730	2900	6.07 µM	3.57	9.1 µM	3050	4.69	847	4.79 µM	4490
CN(Cc1ccc(C(F)(F)F)cc1)CC(O)C(=O)Nc1ccc(Cl)cc1 (stereo unspecified)	2.97 µM	2.6 µM	–	2.65 µM	2.8	2.78 µM	3.28 µM	1540	1120	–	1290	1550	3.03 µM	1.43	2.86 µM	1180	1.78	1500	3.06 µM	1020
Cc1c(C(=O)/C=C/C=C/c2ccccc2)[n+](=O)c2ccccc2n1[O-]	43.7 µM	–	–	> 100 µM	–	> 100 µM	> 100 µM	–	–	–	–	–	83.3 µM	–	> 100 µM	–	–	–	32 µM	–
O=C(O)c1cc(=O)c2c([nH]c3ccccc32)s1	> 100 µM	–	–	> 100 µM	> 100	> 100 µM	> 100 µM	–	–	–	–	–	> 100 µM	–	> 100 µM	–	–	–	> 100 µM	–
COC(=O)C1=C(CS(=O)c2ccc([N+](=O)[O-])cc2[N+](=O)[O-])C2C=CC1C2 (stereo unspecified)	> 100 µM	45.1 µM	–	45.9 µM	> 100	52.5 µM	> 100 µM	–	–	–	–	–	66.8 µM	–	> 100 µM	–	–	–	27.3 µM	–
O=C1OC(c2ccccc2)=N/C1=C\c1ccc(Oc2ccc(Cl)c(Cl)c2)cc1	> 100 µM	> 100 µM	57 µM	78.8 µM	–	73.6 µM	> 100 µM	–	–	–	–	–	–	–	> 100 µM	–	–	–	> 100 µM	–
Cc1cc(NC(=O)C2C3C=CC(O3)C2C(=O)O)no1 (stereo unspecified)	–	32 µM	42.8 µM	> 100 µM	37.4	42.5 µM	> 100 µM	–	–	–	–	–	> 100 µM	–	> 100 µM	–	–	–	> 100 µM	–
NNc1cnn(-c2ccccc2)c(=O)c1Cl	> 100 µM	> 100 µM	> 100 µM	> 100 µM	> 100	> 100 µM	–	–	–	–	–	–	> 100 µM	–	> 100 µM	–	–	–	> 100 µM	–
Cc1ccc(S(=O)(=O)N=NC=C2c3ccccc3N(O)c3ccccc32)cc1	26.6 µM	1.94 µM	–	27.1 µM	3.68	13 µM	24.2 µM	–	–	–	–	–	30 µM	–	27.8 µM	–	–	–	3.86 µM	–
CC1=C2C(=CC(C)(C)[C@@H]2O)C(=O)[C@](C)(O)C12CC2	0.123 µM and 0.411 µM	0.186 µM and 0.193 µM	0.0744 µM and 0.268 µM	0.0655 µM and 0.0768 µM	–	0.369 µM and 0.596 µM	0.371 µM and 0.279 µM	20.5	–	3.51	17.4	8.35	0.0327 µM and 0.0422 µM	–	0.0954 µM and 0.0374 µM	14.5	0.0523	13.7	0.0484 µM and < 0.0232 µM	–
Cn1cccc1-c1cc(-c2ccccc2)[nH]c(=O)c1C#N	> 100 µM	> 100 µM	–	> 100 µM	> 100	> 100 µM	> 100 µM	> 100000	> 100000	–	> 100000	> 100000	> 100 µM	> 100	> 100 µM	> 100000	> 100	> 100000	> 100 µM	> 100000
CSc1ncc(Br)c(Sc2nc(N)nc3nc[nH]c23)n1	22.7 µM	> 100 µM	–	11.2 µM	–	10.1 µM	> 100 µM	3630	4200	–	1940	3320	11.1 µM	4.98	> 100 µM	2010	22.3	3970	20.3 µM	–
CCOC(=O)CN(Cn1cncn1)Cn1cncn1	44.6 µM	> 100 µM	–	> 100 µM	> 100	> 100 µM	–	–	–	–	–	–	51.8 µM	–	> 100 µM	–	–	–	–	–
CCc1cccc(C)c1NC(=O)CCc1nnc2s/c(=C\c3cccc4ccccc34)c(=O)n12	> 100 µM	> 100 µM	–	> 100 µM	> 100	> 100 µM	> 100 µM	–	–	–	–	–	> 100 µM	–	> 100 µM	–	–	–	> 100 µM	–
C1=C/COCc2cc(ccc2OCCN2CCCC2)Nc2nccc(n2)-c2ccc(o2)COC/1	9.37 µM	10.6 µM	–	7.06 µM	5.21	> 33.1 µM	13.5 µM	451	757	–	1060	1990	8.48 µM	0.716	3.8 µM	2650	2.93	1840	6.13 µM	2290
CC(=O)NC(CCCCN)C(=O)NCc1ccccc1 (stereo unspecified)	> 100 µM	> 100 µM	–	> 100 µM	> 100	> 100 µM	> 100 µM	–	–	–	–	–	> 100 µM	–	> 100 µM	–	–	–	> 100 µM	–
